Targets include ALK (Homo sapiens, UniProt Q9UM73); CAMK2D (Homo sapiens, UniProt Q13557); CSNK1G1 (Homo sapiens, UniProt Q9HCP0); EGFR(L747-T751del,Sins) (Homo sapiens, UniProt P00533, DEL747-750/T751S); HIPK1 (Homo sapiens, UniProt Q86Z02); KIT(V559D,T670I) (Homo sapiens, UniProt P10721, T670I/V559D); MAPKAPK2 (Homo sapiens, UniProt P49137); MARK4 (Homo sapiens, UniProt Q96L34); NEK11 (Homo sapiens, UniProt Q8NG66); PIK3CA(E542K) (Homo sapiens, UniProt P42336, E542K); PIK3CA(E545A) (Homo sapiens, UniProt P42336, E545A); PIK3CA(H1047L) (Homo sapiens, UniProt P42336, H1047L); PRKCI (Homo sapiens, UniProt P41743); STK33 (Homo sapiens, UniProt Q9BYT3); TLK1 (Homo sapiens, UniProt Q9UKI8); TNIK (Homo sapiens, UniProt Q9UKE5).

Assay in all cases: biochemical
Set-up in all cases: KINOMEscan active-site competition binding, percent of control (100 = no competition)
Details in all cases: competition binding, percent control

For assay [1], the target named is T1, JAK2(JH1domain-catalytic) (Homo sapiens, UniProt O60674).
T1 construct: JH1domain-catalytic

The next assay addresses T2, JNK2 (Homo sapiens, UniProt P45984).
T2 construct: gene MAPK9

A further assay concerns the target T3, PFPK5(P.falciparum) (Plasmodium falciparum, UniProt P61075).
T3 construct: gene CRK2

In a further assay the target is T4, TIE2 (Homo sapiens, UniProt Q02763).
T4 construct: gene TEK

In another assay the target is T5, YANK3 (Homo sapiens, UniProt Q86UX6).
T5 construct: gene STK32C

The target in a further assay is T6, p38-delta (Homo sapiens, UniProt O15264).
T6 construct: gene MAPK13

Sequence of PIK3CA(H1047L) (P42336 whole entry H1047L): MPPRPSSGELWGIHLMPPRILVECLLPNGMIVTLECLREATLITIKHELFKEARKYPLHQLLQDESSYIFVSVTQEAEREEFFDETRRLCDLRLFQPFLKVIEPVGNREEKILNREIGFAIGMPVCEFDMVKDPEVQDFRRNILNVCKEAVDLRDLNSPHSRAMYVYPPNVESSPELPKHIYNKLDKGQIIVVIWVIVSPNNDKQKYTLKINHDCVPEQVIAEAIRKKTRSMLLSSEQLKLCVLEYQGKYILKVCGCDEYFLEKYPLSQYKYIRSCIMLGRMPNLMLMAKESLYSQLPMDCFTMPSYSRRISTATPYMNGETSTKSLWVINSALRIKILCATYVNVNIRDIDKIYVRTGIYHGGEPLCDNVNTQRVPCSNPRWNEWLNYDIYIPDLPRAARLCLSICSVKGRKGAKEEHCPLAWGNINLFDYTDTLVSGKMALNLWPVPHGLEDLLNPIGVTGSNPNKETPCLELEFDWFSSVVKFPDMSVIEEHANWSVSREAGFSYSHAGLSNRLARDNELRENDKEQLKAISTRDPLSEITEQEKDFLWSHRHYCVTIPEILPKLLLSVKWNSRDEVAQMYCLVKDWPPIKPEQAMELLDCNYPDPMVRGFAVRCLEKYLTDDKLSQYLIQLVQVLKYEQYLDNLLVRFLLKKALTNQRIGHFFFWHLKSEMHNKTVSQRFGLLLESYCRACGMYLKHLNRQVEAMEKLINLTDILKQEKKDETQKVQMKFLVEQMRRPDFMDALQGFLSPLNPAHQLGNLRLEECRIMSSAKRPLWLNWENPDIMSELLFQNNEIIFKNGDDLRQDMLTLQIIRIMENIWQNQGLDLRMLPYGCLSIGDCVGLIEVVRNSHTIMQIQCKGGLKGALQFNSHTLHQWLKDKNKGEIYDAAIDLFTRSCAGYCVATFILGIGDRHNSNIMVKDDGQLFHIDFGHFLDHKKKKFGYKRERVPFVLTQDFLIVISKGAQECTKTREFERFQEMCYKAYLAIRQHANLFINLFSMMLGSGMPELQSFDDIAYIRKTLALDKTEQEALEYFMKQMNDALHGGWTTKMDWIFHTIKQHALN
Sequence of CAMK2D (Q13557 whole entry): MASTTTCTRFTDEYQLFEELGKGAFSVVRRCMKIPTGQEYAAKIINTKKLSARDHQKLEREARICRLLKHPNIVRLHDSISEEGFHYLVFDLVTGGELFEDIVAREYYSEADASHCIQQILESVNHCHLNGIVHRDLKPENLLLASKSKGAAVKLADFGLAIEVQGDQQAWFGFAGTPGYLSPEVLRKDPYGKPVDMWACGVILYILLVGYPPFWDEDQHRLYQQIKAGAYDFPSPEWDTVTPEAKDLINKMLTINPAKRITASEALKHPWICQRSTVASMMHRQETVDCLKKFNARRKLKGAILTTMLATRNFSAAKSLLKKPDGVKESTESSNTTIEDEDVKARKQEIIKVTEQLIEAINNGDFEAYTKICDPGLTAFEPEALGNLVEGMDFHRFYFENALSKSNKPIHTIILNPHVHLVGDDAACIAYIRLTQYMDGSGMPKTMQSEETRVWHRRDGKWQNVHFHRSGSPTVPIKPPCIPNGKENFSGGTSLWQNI
Sequence of CSNK1G1 (Q9HCP0 whole entry): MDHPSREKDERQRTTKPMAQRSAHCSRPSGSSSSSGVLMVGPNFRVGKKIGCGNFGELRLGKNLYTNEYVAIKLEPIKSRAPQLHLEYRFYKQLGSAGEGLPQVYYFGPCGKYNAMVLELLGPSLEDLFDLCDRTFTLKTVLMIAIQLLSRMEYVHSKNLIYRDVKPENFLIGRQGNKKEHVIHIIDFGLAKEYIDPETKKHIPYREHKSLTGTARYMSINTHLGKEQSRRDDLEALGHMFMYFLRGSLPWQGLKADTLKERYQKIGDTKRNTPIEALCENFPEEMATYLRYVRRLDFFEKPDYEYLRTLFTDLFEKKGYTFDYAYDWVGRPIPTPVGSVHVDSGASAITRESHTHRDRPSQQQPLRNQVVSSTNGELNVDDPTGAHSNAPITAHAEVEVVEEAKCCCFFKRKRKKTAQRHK
Sequence of TLK1 (Q9UKI8 whole entry): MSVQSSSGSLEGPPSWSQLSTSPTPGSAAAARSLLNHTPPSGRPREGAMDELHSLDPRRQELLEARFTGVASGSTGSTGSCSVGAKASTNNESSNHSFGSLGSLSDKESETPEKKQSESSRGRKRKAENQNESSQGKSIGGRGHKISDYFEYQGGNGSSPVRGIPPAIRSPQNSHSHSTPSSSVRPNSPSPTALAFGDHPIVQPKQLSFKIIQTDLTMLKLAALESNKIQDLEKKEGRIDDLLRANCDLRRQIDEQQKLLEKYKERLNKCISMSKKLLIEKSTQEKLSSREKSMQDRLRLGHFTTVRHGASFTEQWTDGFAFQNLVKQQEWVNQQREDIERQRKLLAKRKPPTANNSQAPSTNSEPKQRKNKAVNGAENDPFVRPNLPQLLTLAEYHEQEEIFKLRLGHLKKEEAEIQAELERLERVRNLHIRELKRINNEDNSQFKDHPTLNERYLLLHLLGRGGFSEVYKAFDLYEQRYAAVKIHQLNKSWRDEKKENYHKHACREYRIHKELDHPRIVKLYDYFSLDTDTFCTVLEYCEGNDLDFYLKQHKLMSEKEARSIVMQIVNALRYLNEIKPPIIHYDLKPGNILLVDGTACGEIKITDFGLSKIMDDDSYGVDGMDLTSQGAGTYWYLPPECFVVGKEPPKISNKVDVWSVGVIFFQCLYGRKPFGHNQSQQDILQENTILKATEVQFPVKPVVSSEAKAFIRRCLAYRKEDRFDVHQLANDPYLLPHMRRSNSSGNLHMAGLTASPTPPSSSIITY
Sequence of NEK11 (Q8NG66 whole entry): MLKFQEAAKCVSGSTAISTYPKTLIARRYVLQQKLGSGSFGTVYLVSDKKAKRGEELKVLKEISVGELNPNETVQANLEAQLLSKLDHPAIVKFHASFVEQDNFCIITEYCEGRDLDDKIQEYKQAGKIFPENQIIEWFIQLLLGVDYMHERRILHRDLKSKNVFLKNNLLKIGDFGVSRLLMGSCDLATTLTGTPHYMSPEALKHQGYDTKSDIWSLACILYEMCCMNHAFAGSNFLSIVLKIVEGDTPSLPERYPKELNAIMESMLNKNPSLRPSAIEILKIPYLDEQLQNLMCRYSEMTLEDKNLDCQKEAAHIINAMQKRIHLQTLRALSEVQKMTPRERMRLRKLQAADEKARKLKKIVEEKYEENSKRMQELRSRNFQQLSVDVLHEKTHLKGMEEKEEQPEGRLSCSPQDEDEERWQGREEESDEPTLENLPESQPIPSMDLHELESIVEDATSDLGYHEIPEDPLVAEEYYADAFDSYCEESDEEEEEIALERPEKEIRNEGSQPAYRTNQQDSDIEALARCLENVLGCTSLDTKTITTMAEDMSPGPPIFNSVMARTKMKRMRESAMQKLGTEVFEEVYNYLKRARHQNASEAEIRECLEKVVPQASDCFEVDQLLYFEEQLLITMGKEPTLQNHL
Sequence of ALK (Q9UM73 whole entry): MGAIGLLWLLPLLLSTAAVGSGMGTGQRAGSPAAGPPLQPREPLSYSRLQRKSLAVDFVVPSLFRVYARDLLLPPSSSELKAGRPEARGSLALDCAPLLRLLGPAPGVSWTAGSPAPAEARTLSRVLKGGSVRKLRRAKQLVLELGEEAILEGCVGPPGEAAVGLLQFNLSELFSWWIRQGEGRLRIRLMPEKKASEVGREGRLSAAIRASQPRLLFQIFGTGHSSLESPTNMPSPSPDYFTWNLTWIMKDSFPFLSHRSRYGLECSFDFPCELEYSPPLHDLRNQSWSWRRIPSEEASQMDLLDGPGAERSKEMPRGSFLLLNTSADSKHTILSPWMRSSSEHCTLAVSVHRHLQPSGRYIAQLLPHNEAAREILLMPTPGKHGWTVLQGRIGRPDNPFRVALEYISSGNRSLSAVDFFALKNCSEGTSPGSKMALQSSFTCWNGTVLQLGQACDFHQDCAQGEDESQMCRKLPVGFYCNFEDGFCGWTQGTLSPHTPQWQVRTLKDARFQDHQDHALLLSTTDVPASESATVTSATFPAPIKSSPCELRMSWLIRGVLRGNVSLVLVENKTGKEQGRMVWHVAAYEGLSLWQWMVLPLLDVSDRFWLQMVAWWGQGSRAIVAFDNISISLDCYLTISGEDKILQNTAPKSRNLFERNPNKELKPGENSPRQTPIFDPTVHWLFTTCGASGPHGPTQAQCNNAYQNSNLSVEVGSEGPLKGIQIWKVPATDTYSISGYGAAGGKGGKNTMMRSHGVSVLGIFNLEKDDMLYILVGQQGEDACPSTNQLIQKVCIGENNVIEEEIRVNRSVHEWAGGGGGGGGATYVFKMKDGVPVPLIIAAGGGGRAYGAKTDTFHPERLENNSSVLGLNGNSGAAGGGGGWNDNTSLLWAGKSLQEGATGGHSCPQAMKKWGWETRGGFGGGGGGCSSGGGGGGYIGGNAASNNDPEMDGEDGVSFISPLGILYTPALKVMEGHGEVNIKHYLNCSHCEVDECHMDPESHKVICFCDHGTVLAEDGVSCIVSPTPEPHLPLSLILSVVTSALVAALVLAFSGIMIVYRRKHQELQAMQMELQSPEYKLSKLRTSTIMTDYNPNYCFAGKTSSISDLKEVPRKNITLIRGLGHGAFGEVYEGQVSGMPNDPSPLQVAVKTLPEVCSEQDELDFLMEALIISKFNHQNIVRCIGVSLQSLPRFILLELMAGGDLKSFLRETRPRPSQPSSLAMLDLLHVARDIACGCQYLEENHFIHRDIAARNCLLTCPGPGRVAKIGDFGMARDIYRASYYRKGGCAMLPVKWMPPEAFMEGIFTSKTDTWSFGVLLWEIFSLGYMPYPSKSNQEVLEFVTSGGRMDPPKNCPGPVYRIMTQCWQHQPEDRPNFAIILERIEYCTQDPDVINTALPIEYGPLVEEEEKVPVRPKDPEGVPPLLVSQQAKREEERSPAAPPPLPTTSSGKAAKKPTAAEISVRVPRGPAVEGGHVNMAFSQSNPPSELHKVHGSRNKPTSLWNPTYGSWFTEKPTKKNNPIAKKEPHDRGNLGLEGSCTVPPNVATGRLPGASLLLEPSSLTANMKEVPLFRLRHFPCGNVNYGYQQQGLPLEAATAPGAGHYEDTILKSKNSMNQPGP
Sequence of PIK3CA(E542K) (P42336 whole entry E542K): as the sequence (P42336 whole entry H1047L) above, with E542K, L1047H counted along it

Take `COc1ccc(-c2cnccc2-c2cnc(NC(=O)C(C)C)s2)c(C(F)(F)F)c1` [CRT0105446, N-{5-[3-(4-Methoxy-2-trifluoromethyl-phenyl)-pyridin-4-yl]-hiazol-2-yl}-isobutyramide]: the remaining binding at 10 µM at ALK amounted to 89%; at CAMK2D, 72%; on CSNK1G1 it was 94%; at EGFR(L747-T751del,Sins), 100%; on HIPK1, 100%; in [1] it was 100%. Further, the remaining binding at 10 µM on JNK2 was 50%; at KIT(V559D,T670I), 74%; at MAPKAPK2 it was 100%; at MARK4, 57%; at NEK11 it was 100%; at PFPK5(P.falciparum), 100%. The remaining binding at 10 µM on PIK3CA(E542K) came to 100%; on PIK3CA(E545A), 100%; on PIK3CA(H1047L), 100%; at PRKCI, 81%; at STK33 it was 100%; on TIE2, 87%. For the same compound, the remaining binding at 10 µM at TLK1 was found to be 100%; at TNIK it was 89%; on YANK3, 100%; on p38-delta, 97%.
On to `Cc1ccc(-c2cnccc2-c2cnc(Nc3ccc(O)cc3)s2)c(Cl)c1` [CRT0105950, 4-{5-[3-(2-Chloro-4-methyl-phenyl)-pyridin-4-yl]-thiazol-2-ylamino}-phenol], for which the remaining binding at 10 µM at ALK amounted to 20%; at CAMK2D, 29%; on CSNK1G1, 82%; at EGFR(L747-T751del,Sins) it was 68%; at HIPK1, 65%; in assay [1] it was 19%. For the same compound, the remaining binding at 10 µM at JNK2 amounted to 30%; on KIT(V559D,T670I) it was 36%; at MAPKAPK2, 100%; on MARK4, 4%; on NEK11, 84%; on PFPK5(P.falciparum), 84%. In addition, the remaining binding at 10 µM at PIK3CA(E542K) came to 100%; at PIK3CA(E545A) it was 100%; on PIK3CA(H1047L), 97%; at PRKCI, 79%; on STK33, 100%; at TIE2 it was 44%. Further, the remaining binding at 10 µM on TLK1 came to 62%; at TNIK it was 10%; at YANK3 it was 100%; on p38-delta it was 100%.

The record behind these values is PMC4770715, “LIM kinase inhibitors disrupt mitotic microtubule organization and impair tumor cell proliferation” (Oncotarget, 2015).
